In brackets after ≈: the same amount, converted by molar mass. Read-outs that look alike come from different tables or passages of the source.
What was measured:
Assay in all cases: In vitro antibacterial activity, agar plate dilution method (MIC)
Ps.aeruginosa IFO3445 = format: cell-based; conditions: Pseudomonas aeruginosa; Ps.aeruginosa IFO3445; Mueller Hinton agar, inoculum 10⁶ CFU/ml, 37°C, 16 hours; read-out: Minimum Inhibitory Concentration (MIC: µg/ml)
Experimental: (§1) The in vitro antibacterial activities of the compounds of the present invention against various microorganisms, were measured by the following agar plate dilution method. One platinum loopfull of each test microorganism incubated overnight in Mueller Hinton broth, was inoculated to Mueller Hinton agar (inoculum size: l0⁶ CFU/ml). Such culture media containing various antibiotics in various concentrations were prepared. After incubation at 37°C for l6 hours, the minimum inhibitory concentrations (MIC: µg/ml) were measured. As comparative compounds, Cefotaxime, Ceftazidime and the compounds of Reference Examples l to 4 were employed.

S.marcescens IAM 1184 = format: cell-based; conditions: Serratia marcescens, read-out: Minimum Inhibitory Concentration (MIC: µg/ml)
Experimental: as §1

S.aureus JS1 = format: cell-based; conditions: Staphylococcus aureus; S.aureus JS1 (β-Lactamase-producing strain); Mueller Hinton agar, inoculum 10⁶ CFU/ml, 37°C, 16 hours; read-out: Minimum Inhibitory Concentration (MIC: µg/ml)
Experimental: as §1

E.coli CSH2 (RK1) = format: cell-based; conditions: Escherichia coli, 16 h, read-out: Minimum Inhibitory Concentration (MIC: µg/ml)
Experimental: as §1

K.oxytoca GN10650 = format: cell-based; conditions: Klebsiella oxytoca; K.oxytoca GN10650 (β-Lactamase-producing strain); Mueller Hinton agar, inoculum 10⁶ CFU/ml, 37°C, 16 hours; read-out: Minimum Inhibitory Concentration (MIC: µg/ml)
Experimental: as §1

S.epidermidis IAM12012 = format: cell-based; conditions: Staphylococcus epidermidis; S.epidermidis IAM12012; Mueller Hinton agar, inoculum 10⁶ CFU/ml, 37°C, 16 hours; read-out: Minimum Inhibitory Concentration (MIC: µg/ml)
Experimental: as §1

M.luteus ATCC9341 = format: cell-based; conditions: Micrococcus luteus; M.luteus ATCC9341; Mueller Hinton agar, inoculum 10⁶ CFU/ml, 37°C, 16 hours; read-out: Minimum Inhibitory Concentration (MIC: µg/ml)
Experimental: as §1

E.coli CSH(RE45) = format: cell-based; conditions: Escherichia coli, 16 h, read-out: Minimum Inhibitory Concentration (MIC: µg/ml)
Experimental: as §1

S.marcescens No. 16-2 = format: cell-based; conditions: Serratia marcescens, NO.162; S.marcescens No. 16-2 (β-Lactamase-producing strain); Mueller Hinton agar, inoculum 10⁶ CFU/ml, 37°C, 16 hours; read-out: Minimum Inhibitory Concentration (MIC: µg/ml)
Experimental: as §1

P.vulgaris No. 33 = format: cell-based; conditions: Proteus vulgaris; P.vulgaris No. 33 (β-Lactamase-producing strain); Mueller Hinton agar, inoculum 10⁶ CFU/ml, 37°C, 16 hours; read-out: Minimum Inhibitory Concentration (MIC: µg/ml)
Experimental: as §1

E.cloacae 963 = format: cell-based; conditions: Enterobacter cloacae; E.cloacae 963; Mueller Hinton agar, inoculum 10⁶ CFU/ml, 37°C, 16 hours; read-out: Minimum Inhibitory Concentration (MIC: µg/ml)
Experimental: as §1

E.coli NIHJ JC2 = format: cell-based; conditions: Escherichia coli, NIHJJC2; E.coli NIHJ JC2; Mueller Hinton agar, inoculum 10⁶ CFU/ml, 37°C, 16 hours; read-out: Minimum Inhibitory Concentration (MIC: µg/ml)
Experimental: as §1

K.pneumoniae PCI-602 = format: cell-based; conditions: Klebsiella pneumoniae, PCI602; K.pneumoniae PCI-602; Mueller Hinton agar, inoculum 10⁶ CFU/ml, 37°C, 16 hours; read-out: Minimum Inhibitory Concentration (MIC: µg/ml)
Experimental: as §1

Ps.aeruginosa AKR17 = format: cell-based; conditions: Pseudomonas aeruginosa; Ps.aeruginosa AKR17; Mueller Hinton agar, inoculum 10⁶ CFU/ml, 37°C, 16 hours; read-out: Minimum Inhibitory Concentration (MIC: µg/ml)
Experimental: as §1

E.cloacae Nek 39 = format: cell-based; conditions: Enterobacter cloacae, NEK39; E.cloacae Nek 39 (β-Lactamase-producing strain); Mueller Hinton agar, inoculum 10⁶ CFU/ml, 37°C, 16 hours; read-out: Minimum Inhibitory Concentration (MIC: µg/ml)
Experimental: as §1

C.freundii GN346/16 = format: cell-based; conditions: Citrobacter freundii; C.freundii GN346/16; Mueller Hinton agar, inoculum 10⁶ CFU/ml, 37°C, 16 hours; read-out: Minimum Inhibitory Concentration (MIC: µg/ml)
Experimental: as §1

E.coli GN5482 = format: cell-based; conditions: Escherichia coli; E.coli GN5482 (β-Lactamase-producing strain); Mueller Hinton agar, inoculum 10⁶ CFU/ml, 37°C, 16 hours; read-out: Minimum Inhibitory Concentration (MIC: µg/ml)
Experimental: as §1

S.aureus 209P NIHJ-JC1 = format: cell-based; conditions: Staphylococcus aureus; S.aureus 209P NIHJ-JC1; Mueller Hinton agar, inoculum 10⁶ CFU/ml, 37°C, 16 hours; read-out: Minimum Inhibitory Concentration (MIC: µg/ml)
Experimental: as §1

A.calcoaceticus No. 4 = format: cell-based; conditions: Acinetobacter calcoaceticus; A.calcoaceticus No. 4; Mueller Hinton agar, inoculum 10⁶ CFU/ml, 37°C, 16 hours; read-out: Minimum Inhibitory Concentration (MIC: µg/ml)
Experimental: as §1

M.morganii GN5407 = format: cell-based; conditions: Morganella morganii; M.morganii GN5407 (β-Lactamase-producing strain); Mueller Hinton agar, inoculum 10⁶ CFU/ml, 37°C, 16 hours; read-out: Minimum Inhibitory Concentration (MIC: µg/ml)
Experimental: as §1

P.vulgaris HX-19 = format: cell-based; conditions: Proteus vulgaris, HX19; P.vulgaris HX-19; Mueller Hinton agar, inoculum 10⁶ CFU/ml, 37°C, 16 hours; read-out: Minimum Inhibitory Concentration (MIC: µg/ml)
Experimental: as §1

C.freundii GN346 = format: cell-based; conditions: Citrobacter freundii; C.freundii GN346 (β-Lactamase-producing strain); Mueller Hinton agar, inoculum 10⁶ CFU/ml, 37°C, 16 hours; read-out: Minimum Inhibitory Concentration (MIC: µg/ml)
Experimental: as §1

S.aureus BB5703 = format: cell-based; conditions: Staphylococcus aureus; S.aureus BB5703; Mueller Hinton agar, inoculum 10⁶ CFU/ml, 37°C, 16 hours; read-out: Minimum Inhibitory Concentration (MIC: µg/ml)
Experimental: as §1

K.pneumoniae No. 42 = format: cell-based; conditions: Klebsiella pneumoniae; K.pneumoniae No. 42 (β-Lactamase-producing strain); Mueller Hinton agar, inoculum 10⁶ CFU/ml, 37°C, 16 hours; read-out: Minimum Inhibitory Concentration (MIC: µg/ml)
Experimental: as §1

Ps.aeruginosa AK 109 = format: cell-based; conditions: Pseudomonas aeruginosa, AK109; Ps.aeruginosa AK 109; Mueller Hinton agar, inoculum 10⁶ CFU/ml, 37°C, 16 hours; read-out: Minimum Inhibitory Concentration (MIC: µg/ml)
Experimental: as §1

Ps.cepacia 23 = format: cell-based, Pseudomonas cepacia; conditions: Burkholderia cepacia; Ps.cepacia 23; Mueller Hinton agar, inoculum 10⁶ CFU/ml, 37°C, 16 hours; read-out: Minimum Inhibitory Concentration (MIC: µg/ml)
Experimental: as §1

Ps.maltophilia GN 12873 = format: cell-based, Pseudomonas maltophilia; conditions: Stenotrophomonas maltophilia, GN12873; Ps.maltophilia GN 12873 (β-Lactamase-producing strain); Mueller Hinton agar, inoculum 10⁶ CFU/ml, 37°C, 16 hours; read-out: Minimum Inhibitory Concentration (MIC: µg/ml)
Experimental: as §1

Row | SMILES | MIC (Ps.aeruginosa IFO3445) | MIC (S.aureus JS1) | MIC (E.coli CSH2 (RK1)) | MIC (K.oxytoca GN10650) | MIC (S.epidermidis IAM12012) | MIC (M.luteus ATCC9341) | MIC (E.coli CSH(RE45)) | MIC (S.marcescens No. 16-2) | MIC (P.vulgaris No. 33) | MIC (E.cloacae 963) | MIC (E.coli NIHJ JC2) | MIC (K.pneumoniae PCI-602) | MIC (Ps.aeruginosa AKR17) | MIC (E.cloacae Nek 39) | MIC (C.freundii GN346/16) | MIC (E.coli GN5482) | MIC (S.aureus 209P NIHJ-JC1) | MIC (A.calcoaceticus No. 4) | MIC (M.morganii GN5407) | MIC (P.vulgaris HX-19) | further results
1 | C=CCON=C(C(=O)NC1C(=O)N2C(C(=O)[O-])=C(C[n+]3ccc4cc(O)c(O)cc4c3)CS[C@H]12)c1csc(N)n1 (stereo partly drawn) [Ex. 3, 7-[2-allyloxyimino-2-(2-aminothiazol-4-yl)acetamido]-3-(6,7-dihydroxy-2-isoquinolinio)methyl-3-cephem-4-carboxylate] | 0.39 µg/mL (≈ 0.669 µM) | 12.5 µg/mL (≈ 21.5 µM) | 0.0125 µg/mL (≈ 0.0215 µM) | 3.12 µg/mL (≈ 5.36 µM) | 0.39 µg/mL (≈ 0.669 µM) | 0.2 µg/mL (≈ 0.343 µM) | 0.025 µg/mL (≈ 0.0429 µM) | 1.56 µg/mL (≈ 2.68 µM) | 0.1 µg/mL (≈ 0.172 µM) | 0.05 µg/mL (≈ 0.0858 µM) | 0.1 µg/mL (≈ 0.172 µM) | < 0.006 µg/mL | 100 µg/mL (≈ 172 µM) | 0.1 µg/mL (≈ 0.172 µM) | 0.39 µg/mL (≈ 0.669 µM) | 0.39 µg/mL (≈ 0.669 µM) | 0.78 µg/mL (≈ 1.34 µM) | 0.2 µg/mL (≈ 0.343 µM) | 0.05 µg/mL (≈ 0.0858 µM) | < 0.006 µg/mL | MIC (S.marcescens IAM 1184; IAM1184, 16 h): 0.0125 µg/mL (≈ 0.0215 µM); MIC (C.freundii GN346): 50 µg/mL (≈ 85.8 µM); MIC (S.aureus BB5703): 6.25 µg/mL (≈ 10.7 µM); MIC (K.pneumoniae No. 42): 0.1 µg/mL (≈ 0.172 µM); MIC (Ps.aeruginosa AK 109): 0.78 µg/mL (≈ 1.34 µM); MIC (Ps.cepacia 23): < 0.006 µg/mL; MIC (Ps.maltophilia GN 12873): > 100 µg/mL
2 | CC(C)ON=C(C(=O)NC1C(=O)N2C(C(=O)[O-])=C(C[n+]3ccc4cc(O)c(O)cc4c3)CS[C@H]12)c1csc(N)n1 (stereo partly drawn) [Ex. 2, 7-[2-(2-aminothiazol-4-yl)-2-isopropoxyiminoacetamido]-3-(6,7-dihydroxy-2-isoquinolinio)methyl-3-cephem-4-carboxylate] | 0.78 µg/mL (≈ 1.33 µM) | 12.5 µg/mL (≈ 21.4 µM) | < 0.006 µg/mL | 0.39 µg/mL (≈ 0.667 µM) | 0.78 µg/mL (≈ 1.33 µM) | 0.1 µg/mL (≈ 0.171 µM) | 0.39 µg/mL (≈ 0.667 µM) | 0.78 µg/mL (≈ 1.33 µM) | 0.05 µg/mL (≈ 0.0855 µM) | 0.025 µg/mL (≈ 0.0428 µM) | 0.1 µg/mL (≈ 0.171 µM) | < 0.006 µg/mL | 25 µg/mL (≈ 42.8 µM) | 0.05 µg/mL (≈ 0.0855 µM) | 0.78 µg/mL (≈ 1.33 µM) | 0.39 µg/mL (≈ 0.667 µM) | 1.56 µg/mL (≈ 2.67 µM) | 0.2 µg/mL (≈ 0.342 µM) | 0.05 µg/mL (≈ 0.0855 µM) | < 0.006 µg/mL | MIC (S.marcescens IAM 1184; IAM1184, S.marcescens IAM 1184, Mueller Hinton agar, inoculum 10⁶ CFU/ml, 37°C, 16 hours): 0.0125 µg/mL (≈ 0.0214 µM); MIC (C.freundii GN346): 50 µg/mL (≈ 85.5 µM); MIC (S.aureus BB5703): 6.25 µg/mL (≈ 10.7 µM); MIC (K.pneumoniae No. 42): 0.025 µg/mL (≈ 0.0428 µM); MIC (Ps.aeruginosa AK 109): 0.78 µg/mL (≈ 1.33 µM); MIC (Ps.cepacia 23): 0.1 µg/mL (≈ 0.171 µM); MIC (Ps.maltophilia GN 12873): 100 µg/mL (≈ 171 µM)
